Measured values from ChEMBL document CHEMBL5579854, “Targeting Relevant HDACs to Support the Survival of Cone Photoreceptors in Inherited Retinal Diseases: Identification of a Potent Pharmacological Tool with In Vitro and In Vivo Efficacy” (J Med Chem, 2024).
Activity calls are given as the source filed them. The rule behind the calls is not given here.

Tests used:
661W [1] = assay: Cytoprotective effect against H2O2-induced oxidative stress in mouse 661W cells assessed as increase in acetylated alpha-tubulin level at 10 to 30 uM incubated for 24 hrs followed by H2O2 treatment for 3 hrs by immunofluorescence analysis; format: functional, cell-based; conditions: dose 10-30 µM, time 27.0 hrs
[2] = Lipophilicity, logP of compound; format: physicochemical; conditions: octanol/water
[3] = Metabolic stability in mouse liver microsomes assessed as compound recovery at 10 uM incubated for 60 mins in presence of NADPH by HPLC analysis; format: ADME, Microsome; conditions: read-out: Stability
[4] = Inhibition of CYP in mouse liver microsomes using ECOD at 1 to 50 uM measured upto 30 mins by fluorescence based assay; format: ADME, Microsome; conditions: 0.5 h, dose 1-50 µM
Cytochrome P450 1A = molecular target: T1, Cytochrome P450 1A (Homo sapiens, UniProt P04798+P05177); assay: Inhibition of CYP1A in human liver microsomes using ECOD at 1 to 50 uM measured upto 30 mins by fluorescence based assay; format: ADME, Microsome; conditions: 0.5 h, dose 1-50 µM
T1 sequence (P04798 whole entry): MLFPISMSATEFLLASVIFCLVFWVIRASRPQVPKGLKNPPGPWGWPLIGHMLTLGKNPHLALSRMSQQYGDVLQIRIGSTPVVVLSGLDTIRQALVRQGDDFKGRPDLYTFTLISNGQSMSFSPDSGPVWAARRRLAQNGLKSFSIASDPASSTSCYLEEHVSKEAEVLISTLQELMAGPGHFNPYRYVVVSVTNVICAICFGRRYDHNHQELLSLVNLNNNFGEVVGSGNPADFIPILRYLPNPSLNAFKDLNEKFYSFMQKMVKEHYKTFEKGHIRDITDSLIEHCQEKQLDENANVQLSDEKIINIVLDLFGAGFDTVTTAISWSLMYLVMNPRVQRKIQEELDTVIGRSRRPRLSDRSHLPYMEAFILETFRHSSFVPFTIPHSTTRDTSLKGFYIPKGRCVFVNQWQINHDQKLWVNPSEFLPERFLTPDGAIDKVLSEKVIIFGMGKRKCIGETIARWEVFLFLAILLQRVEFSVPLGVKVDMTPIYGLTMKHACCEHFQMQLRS
T1 sequence (P05177 whole entry): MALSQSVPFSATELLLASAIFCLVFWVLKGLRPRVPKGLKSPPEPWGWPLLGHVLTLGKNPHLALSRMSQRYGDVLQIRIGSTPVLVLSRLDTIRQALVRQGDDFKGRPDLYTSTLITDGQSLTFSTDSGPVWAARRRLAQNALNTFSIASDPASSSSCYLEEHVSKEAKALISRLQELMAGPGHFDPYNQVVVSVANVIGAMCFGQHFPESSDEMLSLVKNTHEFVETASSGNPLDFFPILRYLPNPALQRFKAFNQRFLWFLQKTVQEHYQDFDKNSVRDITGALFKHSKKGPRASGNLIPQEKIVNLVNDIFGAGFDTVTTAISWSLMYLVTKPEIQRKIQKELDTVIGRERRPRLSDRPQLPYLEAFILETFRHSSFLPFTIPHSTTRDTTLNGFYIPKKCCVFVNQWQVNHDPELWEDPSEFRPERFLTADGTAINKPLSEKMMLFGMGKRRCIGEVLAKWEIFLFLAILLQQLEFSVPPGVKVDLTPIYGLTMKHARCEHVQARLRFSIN

[5] = Toxicity in Langendorff-perfused Wistar rat heart assessed as effect on chronotropic activity at 0.1 to 30 uM; format: tissue-based; conditions: dose 0.1-30 µM
[6] = Toxicity in Langendorff-perfused Wistar rat heart assessed as effect on QTc prolongation at 0.1 to 30 uM by ECG analysis; format: tissue-based; conditions: dose 0.1-30 µM
ARPE-19 = assay: Cytotoxicity against human ARPE-19 cells assessed as cell viability at 1 uM incubated for 24 hrs by MTT assay; format: toxicity, cell-based; conditions: arpe-19, 24 h
661W [7] = assay: Cytoprotective effect against H2O2-induced oxidative stress in mouse 661W cells assessed as increase in acetylated alpha-tubulin level at 30 uM incubated for 24 hrs followed by H2O2 treatment for 3 hrs by Western blot analysis; format: functional, cell-based; conditions: time 27.0 hrs
[8] = Toxicity in zebrafish larval dye model harboring atp6v0e1/ucd6 assessed as visual impairment at 20 to 100 uM treated for 2 days; set-up: species or system Danio rerio; conditions: in vivo, 48 h, dose 20-100 µM, time 2 day
[9] = Toxicity in zebrafish larval dye model harboring atp6v0e1/ucd6 assessed as morphological abnormalities at 20 to 100 uM treated for 2 days; set-up: species or system Danio rerio; conditions: in vivo, 48 h, dose 20-100 µM, time 2 day
[10] = Toxicity in zebrafish larval dye model harboring atp6v0e1/ucd6 assessed as morphological change in eye at 80 to 100 uM treated for 2 days by toluidine blue staining based analysis; format: tissue-based, Danio rerio; conditions: in vivo, 48 h, dose 80-100 µM, time 2 day
Cone cell [11] = assay: Induction of cone cell survival in eyes of C57BL/6J mouse model harboring rd10 mutant at 5 to 30 uM, IVT administered bilaterally measured after 5 days by IHC analysis; format: functional, tissue-based; conditions: Eye, dose 5-30 µM, time 5.0 day
Cone cell [12] = assay: Rescue of cone morphology with numerous longer outer segments in eyes of C57BL/6J mouse model harboring rd10 mutant at 5 to 30 uM, IVT administered bilaterally measured after 5 days by fluorescence microscopy; format: functional, tissue-based; conditions: Eye, dose 5-30 µM, time 5.0 day
[13] = Induction of cone cell survival rate in eyes of C57BL/6J mouse model harboring rd10 mutant at 30 uM, IVT administered bilaterally measured after 5 days by fluorescence microscopy relative to control; format: functional, Eye; conditions: time 5 day
Mus musculus [14] = assay: Rescue of b-wave amplitude in photopic stimulation in eyes of C57BL/6J mouse model harboring rd10 mutant at 5 to 30 uM, IVT administered bilaterally measured after 5 days by ERG analysis; format: functional, tissue-based; conditions: Eye, dose 5-30 µM, time 5.0 day
Mus musculus [15] = assay: Rescue of scotopic response in eyes of C57BL/6J mouse model harboring rd10 mutant at 5 to 30 uM, IVT administered bilaterally measured after 5 days by ERG analysis; format: functional, tissue-based; conditions: Eye, dose 5-30 µM, time 5.0 day
Mus musculus [16] = assay: Upregulation of […] mRNA level in eyes of C57BL/6J mouse model harboring rd10 mutant at 5 to 30 uM, IVT administered bilaterally measured after 5 days by RT-PCR analysis; format: functional, tissue-based; conditions: Eye, dose 5-30 µM, time 5.0 day
Mus musculus [17] = assay: Upregulation of ARR3 mRNA level in eyes of C57BL/6J mouse model harboring rd10 mutant at 5 to 30 uM, IVT administered bilaterally measured after 5 days by RT-PCR analysis; format: functional, tissue-based; conditions: Eye, dose 5-30 µM, time 5.0 day
Mus musculus [18] = assay: Upregulation of GNAT2 mRNA level in eyes of C57BL/6J mouse model harboring rd10 mutant at 5 to 30 uM, IVT administered bilaterally measured after 5 days by RT-PCR analysis; format: functional, tissue-based; conditions: Eye, dose 5-30 µM, time 5.0 day
Mus musculus [19] = assay: Upregulation of Hsp90b1 mRNA level in eyes of C57BL/6J mouse model harboring rd10 mutant at 5 to 30 uM, IVT administered bilaterally measured after 5 days by RT-PCR analysis; format: functional, tissue-based; conditions: Eye, dose 5-30 µM, time 5.0 day
Mus musculus [20] = assay: Downregulation of Rps6kl1 mRNA level in eyes of C57BL/6J mouse model harboring rd10 mutant at 5 to 30 uM, IVT administered bilaterally measured after 5 days by RT-PCR analysis; format: functional, tissue-based; conditions: Eye, dose 5-30 µM, time 5.0 day
Mus musculus [21] = assay: Inhibition of discontinuities in tight junction pattern in eyes of C57BL/6J mouse model harboring rd10 mutant at 30 uM, IVT administered bilaterally measured after 5 days by ZO-1 staining based analysis; format: functional, tissue-based; conditions: Eye, time 5.0 day

In the case of `O=C(NO)c1ccc(CNC(=O)N2CCc3c(c4ccccc4n3Cc3ccccc3)C2)cc1`, the Activity (661W [1]) is reported as “Active”, the logP [2] is reported as 2.94 and the remaining at 1 h, 10 µM [3] is reported as 87%. For the same compound, the “inhibition (INH)” value [4] was “Not Active”, the “inhibition (INH)” value (Cytochrome P450 1A) was “Not Active” and the Activity [5] was “Non-Toxic”. The Activity [6] was “Non-Toxic”, the Activity (ARPE-19) was “Non-Toxic” and the Activity (661W [7]) was “Active”. The Activity [8] was “Non-Toxic”, the Activity [9] was “Non-Toxic” and the Activity [10] was “Non-Toxic”. The Activity (Cone cell [11]) was “Active”, the Activity (Cone cell [12]) was “Active” and the Activity [13] was 17%. The Activity (Mus musculus [14]) was “Active”, the Activity (Mus musculus [15]) was “Active” and the Activity (Mus musculus [16]) was “Active”. For the same compound, the Activity (Mus musculus [17]) was “Active”, the Activity (Mus musculus [18]) was “Active” and the Activity (Mus musculus [19]) was “Active”. For the same compound, the Activity (Mus musculus [20]) was “Active” and the inhibition (Mus musculus [21]) was “Active”.
